# Measured values taken from ChEMBL document CHEMBL6092168, “Identification of novel indolinone derivatives as CTSC inhibitors to treat inflammatory bowel disease by modulating inflammatory factors” (Eur J Med Chem, 2024).
# pIC50: −log10 of the molar value. The source made the active and inactive calls. No cut-off for these calls is given here.
# Key:
# Dipeptidyl peptidase 1 = Dipeptidyl peptidase 1 (Homo sapiens, UniProt P53634); assay: Inhibition of human recombinant Cathepsin C using Gly-Phe-AFC as substrate preincubated for 3 hrs followed by substrate addition and measured after 1 hr by fluorescence based multifunctional microplate reader analysis
# Sequence of Dipeptidyl peptidase 1 (P53634 25-134 limits assumed): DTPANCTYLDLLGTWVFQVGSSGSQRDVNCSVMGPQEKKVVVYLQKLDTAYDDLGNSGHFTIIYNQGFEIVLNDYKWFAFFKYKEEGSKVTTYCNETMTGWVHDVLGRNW
# Sequence of Dipeptidyl peptidase 1 (P53634 231-394 limits assumed): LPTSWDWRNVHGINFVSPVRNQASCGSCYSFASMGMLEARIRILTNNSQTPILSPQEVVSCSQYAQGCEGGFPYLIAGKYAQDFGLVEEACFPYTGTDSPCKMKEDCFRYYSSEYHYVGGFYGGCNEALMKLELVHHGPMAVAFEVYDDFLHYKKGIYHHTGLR
# Sequence of Dipeptidyl peptidase 1 (P53634 395-463 limits assumed): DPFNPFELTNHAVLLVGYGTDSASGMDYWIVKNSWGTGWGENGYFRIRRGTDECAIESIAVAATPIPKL
# RAW264.7 [1] = assay: Anti-inflammatory activity in mouse RAW264.7 cells assessed as inhibition of LPS-induced NO production preincubated for 1 hr followed by LPS addition and measured after 24 hrs by Griess reagent based assay; type: functional, cell-based
# RAW264.7 [2] = assay: Anti-inflammatory activity in mouse RAW264.7 cells assessed as inhibition of LPS-induced IL-1beta production at 5 uM preincubated for 1 hr followed by LPS addition and measured after 24 hrs by ELISA relative to control; type: functional
# RAW264.7 [3] = assay: Anti-inflammatory activity in mouse RAW264.7 cells assessed as inhibition of LPS-induced TNF-alpha production at 5 uM preincubated for 1 hr followed by LPS addition and measured after 24 hrs by ELISA relative to control; type: functional
Compound,pIC50 (Dipeptidyl peptidase 1),pIC50 (RAW264.7 [1]),Activity (RAW264.7 [2]; time 25.0 hrs),Activity (RAW264.7 [3]; time 25.0 hrs),Activity (RAW264.7 [2]; time 25 hrs),Activity (RAW264.7 [3]; time 25 hrs)
CNC(=O)c1cccc(NC(=O)c2cccc(-c3ccc(CN4CCOCC4)cc3)c2)c1,< 6.00,< 4.30,inactive,inactive,,
O=C(Nc1ccc(O)cc1)c1cccc(-c2ccc(CN3CCOCC3)cc2)c1,6.62,4.80,,,38.6%,40.8%
O=C(Nc1cncc2ccccc12)c1cccc(-c2ccc(CN3CCOCC3)cc2)n1,6.60,< 4.30,inactive,inactive,,
Nc1c(C(=O)Nc2cccc3ccccc23)cccc1-c1ccc(CN2CCOCC2)cc1,6.56,5.08,,,67.1%,40.1%
CCc1ccc(NC(=O)c2cccc(-c3ccc(CN4CCOCC4)cc3)c2)cc1,< 6.00,< 4.30,inactive,inactive,,
Cc1ccccc1NC(=O)c1cccc(-c2ccc(CN3CCOCC3)cc2)c1,< 6.00,< 4.30,inactive,inactive,,
CCc1cccc(NC(=O)c2cccc(-c3ccc(CN4CCOCC4)cc3)c2)c1,< 6.00,< 4.30,inactive,inactive,,
Cc1ccc(NC(=O)c2cccc(-c3ccc(CN4CCOCC4)cc3)c2)cc1,< 6.00,< 4.30,inactive,inactive,,
O=C(Nc1ccc(C(F)(F)F)cc1)c1cccc(-c2ccc(CN3CCOCC3)cc2)c1,< 6.00,< 4.30,inactive,inactive,,
CC(=O)Nc1ccccc1NC(=O)c1cccc(-c2ccc(CN3CCOCC3)cc2)c1,6.05,< 4.30,inactive,inactive,,
Nc1ccccc1NC(=O)c1cccc(-c2ccc(CN3CCOCC3)cc2)c1,< 6.00,< 4.30,inactive,inactive,,
CC(C)c1ccccc1NC(=O)c1cccc(-c2ccc(CN3CCOCC3)cc2)c1,< 6.00,< 4.30,inactive,inactive,,
Nc1cccc(NC(=O)c2cccc(-c3ccc(CN4CCOCC4)cc3)c2)c1,< 6.00,< 4.30,inactive,inactive,,
CC(C)c1ccc(NC(=O)c2cccc(-c3ccc(CN4CCOCC4)cc3)c2)cc1,< 6.00,< 4.30,inactive,inactive,,
Nc1c(C(=O)Nc2cncc3ccccc23)cccc1-c1ccc(CN2CCOCC2)cc1,6.65,5.28,,,62.3%,60.8%
O=C(Nc1ccccc1F)c1cccc(-c2ccc(CN3CCOCC3)cc2)c1,< 6.00,< 4.30,inactive,inactive,,
O=C(Nc1cccc(C(F)(F)F)c1)c1cccc(-c2ccc(CN3CCOCC3)cc2)c1,< 6.00,< 4.30,inactive,inactive,,
O=C(Nc1ccccc1)c1cccc(-c2ccc(CN3CCOCC3)cc2)c1,< 6.00,< 4.30,inactive,inactive,,
O=C(Nc1ccc(F)cc1)c1cccc(-c2ccc(CN3CCOCC3)cc2)c1,< 6.00,< 4.30,inactive,inactive,,

# More lines, main results first:
pIC50 (Dipeptidyl peptidase 1),pIC50 (RAW264.7 [1]),Compound,Activity (RAW264.7 [2]; time 25.0 hrs),Activity (RAW264.7 [3]; time 25.0 hrs),Activity (RAW264.7 [2]; time 25 hrs),Activity (RAW264.7 [3]; time 25 hrs)
< 6.00,< 4.30,CCc1ccc(-c2cccc3c2NC(=O)/C3=C\c2ccnc3ccccc23)cc1,inactive,inactive,,
6.58,5.06,O=C(Nc1nccc2ccccc12)c1cccc(-c2ccc(CN3CCOCC3)cc2)c1,,,70.6%,67.7%
6.71,5.17,O=C1Nc2c(cccc2-c2ccc3[nH]ccc3c2)/C1=C/c1ccnc2ccccc12,,,63.5%,43.2%
6.27,4.95,O=C1Nc2c(cccc2-c2ccc(N3CCOCC3)cc2)/C1=C/c1ccnc2ccccc12,inactive,inactive,,
6.51,4.83,O=C1Nc2c(cccc2-c2ccc3cn[nH]c3c2)/C1=C/c1ccnc2ccccc12,,,65.3%,43.3%
6.89,5.29,O=C1Nc2c(cccc2-c2ccc(CN3CCNCC3)cc2)/C1=C/c1ccnc2ccccc12,,,82.5%,68.7%
6.84,5.19,Nc1c(C(=O)Nc2ccnc3ccccc23)cccc1-c1ccc(CN2CCOCC2)cc1,,,80.9%,75.2%
6.62,5.03,O=C(Nc1ccnc2ccccc12)c1cccc(-c2ccc(CN3CCOCC3)cc2)c1,,,75.7%,70.6%
< 6.00,< 4.30,CC(C)c1ccc(-c2cccc3c2NC(=O)/C3=C\c2ccnc3ccccc23)cc1,inactive,inactive,,
< 6.00,4.43,O=C1Nc2c(cccc2-c2ccc(F)cc2)/C1=C/c1ccnc2ccccc12,inactive,inactive,,
6.53,4.77,CC(=O)c1ccc(-c2cccc3c2NC(=O)/C3=C\c2ccnc3ccccc23)cc1,inactive,inactive,,
6.98,5.36,O=C1Nc2c(cccc2-c2ccc(CN3CCOCC3)cc2)/C1=C/c1ccnc2ccccc12,,,88.3%,72.2%
6.40,4.81,Nc1n[nH]c2ccc(-c3cccc4c3NC(=O)/C4=C\c3ccnc4ccccc34)cc12,,,59.3%,37.8%
6.18,4.84,CN(C)Cc1ccc(-c2cccc3c2NC(=O)/C3=C\c2ccnc3ccccc23)cc1,inactive,inactive,,
6.74,5.07,O=C1Nc2c(cccc2-c2ccc(C(=O)N3CCOCC3)cc2)/C1=C/c1ccnc2ccccc12,,,65.2%,58.1%
< 6.00,< 4.30,O=C1Nc2c(cccc2-c2ccc(Cl)cc2)/C1=C/c1ccnc2ccccc12,inactive,inactive,,
< 6.00,< 4.30,O=C1Nc2c(cccc2-c2ccccc2)/C1=C/c1ccnc2ccccc12,inactive,inactive,,
,4.84,NCc1ccc(-c2cccc3c2NC(=O)/C3=C\c2ccnc3ccccc23)cc1,inactive,inactive,,
,5.17,O=C1Nc2c(cccc2-c2ccc(C(=O)NC3CCOCC3)cc2)/C1=C/c1ccnc2ccccc12,,,88.1%,71.9%
,5.01,O=C1Nc2c(cccc2-c2ccc3cc[nH]c3c2)/C1=C/c1ccnc2ccccc12,,,60.2%,39.4%
